Here are results for one molecule from patent US6472425B1, “Methods for treating female sexual dysfunctions” (NitroMed, Inc., priority 1997, dated 2002).

This assay concerns Human corpus cavernosum tissue. In words: In vitro comparative relaxation responses, isometric tension of phenylephrine-contracted tissue strips in organ chambers. Particulars: doses of 10 μM and 30 μM, compared with an equimolar dose of dipyridamole; tissue contracted with phenylephrine 7×10^−7 M; −100% = tone after papaverine 10^−4 M; FIG. 40. In kind it is cell-based. An excerpt: In Vitro Comparative Relaxation Responses
Human corpus cavernosum tissue biopsies were obtained at the time of penile prosthesis implantation from impotent men. The tissue was maintained in a chilled Krebs-bicarbonate solution prior to assay. The tissue was cut into strips of 0.3×0.3×1 cm and suspended in organ chambers for isometric tension measurement. Tissues were incrementally stretched until optimal isometric tension for contraction was obtained. Once this was achieved, the tissues were contracted with phenylephine (7×10^−7 M) and once a stable contraction was achieved, the tissues were exposed to either dipyridamole or Example 1 (10^−6 to 3×10^−5 M) by cumulative additions to the chamber. At the end of the experiment papaverine (10^−4 M) is added to obtain maximal relaxation. […] Data are expressed as the percent loss in tone from the phenylephrine-induced contraction (0%=phenylephrine contraction; −100% tone after the administration of papaverine).

Consider `CC(C)(CC(=O)OCCN(CCOC(=O)CC(C)(C)SN=O)c1nc(N2CCCCC2)c2nc(N(CCOC(=O)CC(C)(C)SN=O)CCOC(=O)CC(C)(C)SN=O)nc(N3CCCCC3)c2n1)SN=O` [Example 1, 2,6-bis(diethyl(3-methyl-3(nitrosothiol)butyric acid ester)amino)-4,8-dipiperidinopyrimido-[5,4d]-pyrimidine], for which the “relaxing the phenylephrine-induced contraction (percent loss in tone from the phenylephrine-induced contraction)” value is listed as “more efficacious”.
